In brackets after ≈: the same amount, converted by molar mass. Activity calls are given as the source filed them. The rule behind the calls is not given here.

Data set [1] deals with Trypanosoma cruzi. Put plainly: Antitrypanosomal activity against Trypanosoma cruzi Brazil trypomastigotes coexpressing luciferase infected in BALB/c mouse model assessed as reduction in parasite load at 50 mg/kg, po BID administered for 5 days followed by cyclophosphamide addition 30 days post last dose and measured 10 days post cyclophosphamide addition. The format is functional, organism-based. As to conditions: time 45.0 day.

A short description of data set [2]: Intrinsic clearance in human liver microsomes assessed per mg protein measured after 60 mins in presence of NADPH generating system by LC-MS analysis. As to conditions: read-out: CLH. The format is ADME, Microsome.
Data set [3] can be described thus: Selectivity index, ratio of IC50 for cytotoxicity against human HEK293 cells assessed as reduction in cell viability to IC50 for antitrypanosomal activity against Trypanosoma brucei brucei Lister 427 blood stream form. In kind it is toxicity, cell-based. The note with it: read-out: Ratio IC50.
Data set [4] can be described thus: Toxicity in Balb/c mouse infected with Trypanosoma cruzi Brazil trypomastigotes coexpressing luciferase assessed as low resistance to handling at 50 mg/kg, po BID administered for 5 days. The note with it: in vivo, 120 h, time 5 day. The format is organism-based.
A short description of data set [5]: Cmax in Balb/c mouse at 50 mg/kg, po administered via gavage in presence of 1-aminobenzotriazole. Further details: route oral, dose 50 mg/kg. As to conditions: in vivo. The format is ADME, organism-based.
Data set [6] in a line: AUClast (0 to t) in Balb/c mouse at 50 mg/kg, po administered via gavage in presence of 1-aminobenzotriazole. The format is ADME, organism-based. Further details: route oral, time 0 - last, dose 50 mg/kg. As to conditions: in vivo.
Data set [7] is described as follows: Dose normalized AUClast in Balb/c mouse at 50 mg/kg, po administered via gavage. In kind it is ADME, organism-based. As to conditions: in vivo.
Data set [8] in a line: Dose normalized Cmax in Balb/c mouse at 50 mg/kg, po administered via gavage. The note with it: in vivo. The format is ADME, organism-based.
Data set [9] deals with Trypanosoma brucei brucei. Description: Antitrypanosomal activity against Trypanosoma brucei brucei Lister 427 strain blood stream forms incubated for 48 hrs by resazurin dye based fluorescence assay. The note with it: Lister 427, 48 h. In kind it is functional, organism-based.
Data set [10] in a line: Dose normalized Cmax in Balb/c mouse at 50 mg/kg, po administered via gavage in presence of 1-aminobenzotriazole. The format is ADME, organism-based. The note with it: in vivo.
A short description of data set [11]: Metabolic stability in human liver microsomes assessed as degradation half-life measured after 60 mins in presence of NADPH generating system by LC-MS analysis. In kind it is ADME, Microsome. As to conditions: read-out: T50.
The subject of data set [12] is Trypanosoma cruzi. Description: Antitrypanosomal activity against Trypanosoma cruzi Brazil trypomastigotes coexpressing luciferase infected in BALB/c mouse model assessed as reduction in parasite load at 50 mg/kg, po BID administered for 5 days measured after 10 days. In kind it is functional, organism-based. The note with it: time 10.0 day.
Data set [13] in a line: Toxicity in Balb/c mouse infected with Trypanosoma cruzi Brazil trypomastigotes coexpressing luciferase assessed as hunched-back posture at 50 mg/kg, po BID administered for 5 days. The format is organism-based. As to conditions: in vivo, 120 h, time 5 day.
Data set [14] in a line: Metabolic stability in mouse liver microsomes assessed as degradation half-life measured after 60 mins in presence of NADPH generating system by LC-MS analysis. The format is ADME, Microsome. As to conditions: read-out: T50.
The nature of data set [15]: Dose normalized AUClast in Balb/c mouse at 50 mg/kg, po administered via gavage in presence of 1-aminobenzotriazole. In kind it is ADME, organism-based. The note with it: in vivo.
Data set [16] can be described thus: AUClast (0 to t) in Balb/c mouse at 50 mg/kg, po administered via gavage. The format is ADME, organism-based. Further details: time 0 - last, route oral, dose 50 mg/kg. As to conditions: in vivo.
A short description of data set [17]: Metabolic stability in human liver microsomes assessed as half-life measured after 60 mins in presence of NADPH generating system by LC-MS analysis. In kind it is ADME, Microsome.
Data set [18] in a line: Tmax in Balb/c mouse at 50 mg/kg, po administered via gavage. The format is ADME, organism-based. The note with it: in vivo.
In data set [19] the test system is Trypanosoma cruzi. Description: Antitrypanosomal activity against Trypanosoma cruzi Tulahuen strain trypomastigotes infected in rat H9c2 cells incubated for 72 hrs by DRAQ5 DNA dye based imaging analysis. In kind it is functional, organism-based. The note with it: H9c2, 72 h.
Data set [20] is described as follows: Tmax in Balb/c mouse at 50 mg/kg, po administered via gavage in presence of 1-aminobenzotriazole. The format is ADME, organism-based. As to conditions: in vivo.
Data set [21] is described as follows: Cmax in Balb/c mouse at 50 mg/kg, po administered via gavage. The format is ADME, organism-based. Further details: route oral, dose 50 mg/kg. The note with it: in vivo.
Data set [22] is described as follows: Toxicity in Balb/c mouse infected with Trypanosoma cruzi Brazil trypomastigotes coexpressing luciferase assessed as ruffled fur at 50 mg/kg, po BID administered for 5 days. In kind it is organism-based. The note with it: in vivo, 120 h, time 5 day.
Data set [23] can be described thus: Intrinsic clearance in mouse liver microsomes assessed per mg protein measured after 60 mins in presence of NADPH generating system by LC-MS analysis. In kind it is ADME, Microsome. As to conditions: read-out: CLH.
Data set [24] can be described thus: Selectivity index, ratio of IC50 for cytotoxicity against rat H9c2 cells assessed as reduction in cell viability to IC50 for antitrypanosomal against Trypanosoma cruzi Tulahuen trypomastigotes infected in rat H9c2 cells. As to conditions: read-out: Ratio IC50. The format is toxicity, cell-based.
The nature of data set [25]: Drug metabolism in human liver microsomes assessed as 2-(2-phenylthiazol-4-yl)-ethanol metabolite formation in presence of NADPH and UDPGA measured after 60 mins by LC-MS analysis. The format is ADME, Microsome. The note with it: 1 h.
The subject of another data set is L6. Description: Cytotoxicity against rat L6 cells assessed as reduction in cell viability measured after 72 hrs by alamar blue dye based fluorimetry analysis. As to conditions: L6, 72 h.
A short description of data set [26]: Partition coefficient, log D of compound at pH 7.4 by HPLC. The format is physicochemical. As to conditions: octanol/water.
A short description of data set [27]: Drug metabolism in human liver microsomes assessed as secondary hydroxylation by measuring N-(2-(4-(2,4-difluorophenyl)thiazol-2-yl)ethyl)piperidine-1-carboxamide metabolite formation in presence of NADPH measured after 60 mins by LC-MS analysis. The format is ADME, Microsome. The note with it: 1 h.
In data set [28] the test system is Trypanosoma cruzi. Put plainly: Antitrypanosomal activity against Trypanosoma cruzi infected in vero cells assessed as parasite growth inhibition incubated from 24 to 96 hrs by time kill assay. In kind it is functional, organism-based.
Data set [29] in a line: Drug metabolism in human liver microsomes assessed as oxidative dealkylation by measuring 2-(2-phenylthiazol-4-yl)-ethanol formation in presence of NADPH measured after 60 mins by LC-MS analysis. In kind it is ADME, Microsome. As to conditions: 1 h.
Data set [30] in a line: Drug metabolism in human liver microsomes assessed as hydroxylation by measuring 3-fluoro-N-(2-hydroxy-2-(2-phenylthiazol-4-yl)ethyl)benzamide formation in presence of NADPH measured after 60 mins by LC-MS analysis. In kind it is ADME, Microsome. As to conditions: 1 h.
In data set [31] the test system is Trypanosoma cruzi. Description: Antitrypanosomal activity against Trypanosoma cruzi infected in vero cells assessed as reduction in parasite growth inhibition incubated for 96 hrs by time kill assay relative to nifurtimox. In kind it is functional.
The next data set relates to Plasmodium falciparum. Description: Antiplasmodial activity against chloroquine and pyrimethamine resistant erythrocytic stage of Plasmodium falciparum K1 strain assessed as reduction in [3H]hypoxanthine incorporation measured after 48 hrs by liquid scintillation counting method. The format is functional, organism-based.
Data set [32] deals with Trypanosoma cruzi. Description: Antitrypanosomal activity against Trypanosoma cruzi Tulahuen C4 strain amastigotes infected in rat L6 cells measured after 96 hrs by inverted microscopy analysis. In kind it is functional, organism-based. The note with it: Tulahuen C4, L6, 96 h.
Data set [33] can be described thus: Drug metabolism in human liver microsomes assessed as hydroxylation by measuring 3-fluoro-N-(2-(2-(4-hydroxyphenyl)thiazol-4-yl)ethyl)benzamide formation in presence of NADPH measured after 60 mins by LC-MS analysis. In kind it is ADME, Microsome. As to conditions: 1 h.
Data set [34] is described as follows: Drug metabolism in human liver microsomes assessed as N-(2-(4-(2,4-difluorophenyl)thiazol-2-yl)ethyl)piperidine-1-carboxamide metabolite formation in presence of NADPH and UDPGA measured after 60 mins by LC-MS analysis. In kind it is ADME, Microsome. As to conditions: 1 h.
Data set [35] in a line: Kinetic solubility of compound at pH 2 by nephelometry. In kind it is physicochemical. The note with it: buffer, read-out: Kinetic_solubility.
The nature of data set [36]: Metabolic stability in human liver microsome assessed as compound degradation measured over 60 mins in absence of cofactor by LC-MS analysis. In kind it is ADME. As to conditions: liver microsomes, read-out: Drug degradation.
The subject of a further data set is Vero. Description: Cytotoxicity against African green monkey Vero cells assessed as reduction in cell viability. In kind it is cell-based. The note with it: chlorocebus sabaeus.
A further data set has as its system Leishmania donovani. Put plainly: Antileishmanial activity against Leishmania donovani MHOM/ET/67/L82 amastigotes measured after 72 hrs by alamar blue dye based fluorimetry analysis. In kind it is functional, organism-based. The note with it: MHOM/ET/67/L82, 72 h.
The nature of data set [37]: Protein binding in human plasma by HPLC-MS analysis. The note with it: read-out: PPB (converted). The format is ADME, cell-free.
The subject of data set [38] is Trypanosoma cruzi. Put plainly: Inhibition of Trypanosoma cruzi Tulahuen C4 CYP51 expressed in Escherichia coli JM109 using BOMCC as substrate in presence of NADPH by fluorescence assay.

Take `O=C(NCCc1csc(-c2ccc(F)cc2F)n1)N1CCCCC1`: in the data set on Trypanosoma cruzi [1], the outcome was inactive. Further, the values for the microsomal CLint in [2] and in data set [23] were 225 µL/min/mg and greater than 1600 µL/min/mg, respectively. For the same compound, the selectivity ratio in data set [3] is 433; in data set [24] it was greater than 3160. Also, the Activity entry in data set [4], in data set [13] and in [22] was “Toxic” in each case. The results for the Cmax in data set [5] and in data set [21] were 7090 ng/mL and 212 ng/mL, respectively. Moreover, the AUC(0-t) was 14800 ng·h/mL in data set [6] and 127 ng·h/mL in data set [16]. Moreover, the AUClast/dose in data set [7] turned out to be 2.54 ng·h/mL/mg/kg; in data set [15], 295 ng·h/mL/mg/kg. Further, the Cmax/dose was determined as 4.3 kg·ng/mL/mg in [8] and 142 kg·ng/mL/mg in [10]. Besides, the IC50 worked out at 24 nM in data set [9] and 20 nM in the data set on Trypanosoma cruzi [19]. In addition, the half-life was 8 min in data set [11], less than 2 min in data set [14] and 5 min in data set [17]. Also, the result in the data set with Trypanosoma cruzi [12] was Active. Moreover, the Tmax amounted to 15 min in [18] and 30 min in data set [20].
Turning to `O=C(NCCc1csc(-c2ccccc2)n1)c1cccc(F)c1`, the Drug metabolism entry in data set [25], in [27], in [29], in [30], in data set [33] and in data set [34] was “Metabolite_Detected” throughout. For the same compound, in [2], the microsomal CLint turned out to be 484 µL/min/mg. The IC50 with L6 was 51000 nM; with Trypanosoma cruzi [28], 400 nM; with Plasmodium falciparum, 41000 nM; with Trypanosoma cruzi [32], 200 nM; in the data set with Trypanosoma cruzi [19] it was 500 nM; with Leishmania donovani, 10000 nM. For the same compound, the logD in data set [26] is 3.6. Also, the Imax with Trypanosoma cruzi [31] is recorded as 106%. Besides, the half-life in data set [11] is 4 min. In addition, the solubility kinetic in data set [35] worked out at 6 µg/mL (≈ 18.4 µM). The metabolised at 1 h in [36] came to 14%. For the same compound, in the data set with Vero, the Activity is 17 µM. In addition, in data set [37], the fraction unbound is 0.04. Also, the inhibition entry in the data set with Trypanosoma cruzi [38] was “inactive”.

The values are drawn from ChEMBL document CHEMBL4715758, “Hit-to-Lead Optimization of a Novel Class of Potent, Broad-Spectrum Trypanosomacides” (J Med Chem, 2016).
